Values of other authors in US20040241258A1, “Insect repellent for humans and animals” (priority 2003, published 2004).

Details: in vivo

CCN(CC)C(=O)c1cccc(C)c1 [DEET, N, N-diethyl-meta-toulamide]
time remaining in the blood stream after use: 30 days
